Laboratory results published in ChEMBL document CHEMBL5465560, “Selectivity Literature for EUbOPEN Chemogenomic Library” (2024).

Columns and labels:
[1] = molecular target: T1, Receptor-type tyrosine-protein kinase FLT3 (Homo sapiens, UniProt P36888); test: Selectivity interaction (Kinase panel (Eurofins, enzymatic assay)) EUB0000311b FLT3
T1 sequence (P36888 whole entry): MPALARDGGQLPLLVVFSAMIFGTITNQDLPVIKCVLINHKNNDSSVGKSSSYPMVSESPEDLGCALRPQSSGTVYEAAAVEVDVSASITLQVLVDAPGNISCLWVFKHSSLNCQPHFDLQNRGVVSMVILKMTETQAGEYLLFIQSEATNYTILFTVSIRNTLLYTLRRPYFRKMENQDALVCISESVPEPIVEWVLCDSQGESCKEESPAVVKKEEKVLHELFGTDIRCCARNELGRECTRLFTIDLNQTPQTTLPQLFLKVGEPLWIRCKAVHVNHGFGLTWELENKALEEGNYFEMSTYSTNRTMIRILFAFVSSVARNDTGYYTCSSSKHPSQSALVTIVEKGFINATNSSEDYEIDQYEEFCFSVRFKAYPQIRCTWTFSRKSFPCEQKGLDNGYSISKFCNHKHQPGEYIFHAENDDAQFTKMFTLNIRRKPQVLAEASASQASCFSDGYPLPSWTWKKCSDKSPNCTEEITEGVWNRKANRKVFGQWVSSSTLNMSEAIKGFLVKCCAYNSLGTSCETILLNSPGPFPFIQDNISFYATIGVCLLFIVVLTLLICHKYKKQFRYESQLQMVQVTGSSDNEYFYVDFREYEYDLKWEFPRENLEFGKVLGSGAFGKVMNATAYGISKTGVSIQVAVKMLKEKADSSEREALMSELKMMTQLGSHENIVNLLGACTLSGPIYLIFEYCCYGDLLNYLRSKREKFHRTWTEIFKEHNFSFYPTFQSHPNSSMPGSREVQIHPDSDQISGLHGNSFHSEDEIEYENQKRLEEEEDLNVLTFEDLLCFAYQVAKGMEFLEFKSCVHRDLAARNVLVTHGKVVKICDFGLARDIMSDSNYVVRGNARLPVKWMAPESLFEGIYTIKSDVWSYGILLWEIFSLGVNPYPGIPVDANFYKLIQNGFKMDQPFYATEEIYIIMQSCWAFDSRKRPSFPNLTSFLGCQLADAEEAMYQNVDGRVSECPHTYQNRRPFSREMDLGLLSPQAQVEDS

[2] = molecular target: Interleukin-1 receptor-associated kinase 1 (Homo sapiens) (UniProt P51617); test: Selectivity interaction (KinomeScan (DiscoverX)) EUB0000229b IRAK1; conditions: at 10 µM
Chain of Interleukin-1 receptor-associated kinase 1 (Homo sapiens) (P51617 whole entry, looked up): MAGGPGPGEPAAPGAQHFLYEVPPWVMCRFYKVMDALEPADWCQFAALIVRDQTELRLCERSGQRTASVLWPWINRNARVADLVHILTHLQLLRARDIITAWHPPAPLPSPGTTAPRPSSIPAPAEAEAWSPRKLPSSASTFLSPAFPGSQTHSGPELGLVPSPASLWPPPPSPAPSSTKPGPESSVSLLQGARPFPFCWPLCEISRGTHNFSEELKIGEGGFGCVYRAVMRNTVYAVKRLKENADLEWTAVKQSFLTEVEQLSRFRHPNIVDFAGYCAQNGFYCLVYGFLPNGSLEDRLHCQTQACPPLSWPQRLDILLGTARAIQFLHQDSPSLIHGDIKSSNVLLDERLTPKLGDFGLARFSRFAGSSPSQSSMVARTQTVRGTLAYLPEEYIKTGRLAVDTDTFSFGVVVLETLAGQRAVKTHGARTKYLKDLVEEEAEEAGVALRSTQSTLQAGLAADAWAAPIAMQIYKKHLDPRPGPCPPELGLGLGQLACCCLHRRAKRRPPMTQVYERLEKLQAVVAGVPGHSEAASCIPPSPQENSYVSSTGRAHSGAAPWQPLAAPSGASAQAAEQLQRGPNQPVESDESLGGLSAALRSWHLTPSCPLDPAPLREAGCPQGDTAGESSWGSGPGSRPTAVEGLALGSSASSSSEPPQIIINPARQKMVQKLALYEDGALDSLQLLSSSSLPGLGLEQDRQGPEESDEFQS

[3] = molecular target: T2, Dual specificity protein kinase TTK (Homo sapiens) (UniProt P33981); test: Selectivity interaction (KinomeScan (DiscoverX)) EUB0000229b TTK; conditions: at 10 µM
T2 sequence (whole entry): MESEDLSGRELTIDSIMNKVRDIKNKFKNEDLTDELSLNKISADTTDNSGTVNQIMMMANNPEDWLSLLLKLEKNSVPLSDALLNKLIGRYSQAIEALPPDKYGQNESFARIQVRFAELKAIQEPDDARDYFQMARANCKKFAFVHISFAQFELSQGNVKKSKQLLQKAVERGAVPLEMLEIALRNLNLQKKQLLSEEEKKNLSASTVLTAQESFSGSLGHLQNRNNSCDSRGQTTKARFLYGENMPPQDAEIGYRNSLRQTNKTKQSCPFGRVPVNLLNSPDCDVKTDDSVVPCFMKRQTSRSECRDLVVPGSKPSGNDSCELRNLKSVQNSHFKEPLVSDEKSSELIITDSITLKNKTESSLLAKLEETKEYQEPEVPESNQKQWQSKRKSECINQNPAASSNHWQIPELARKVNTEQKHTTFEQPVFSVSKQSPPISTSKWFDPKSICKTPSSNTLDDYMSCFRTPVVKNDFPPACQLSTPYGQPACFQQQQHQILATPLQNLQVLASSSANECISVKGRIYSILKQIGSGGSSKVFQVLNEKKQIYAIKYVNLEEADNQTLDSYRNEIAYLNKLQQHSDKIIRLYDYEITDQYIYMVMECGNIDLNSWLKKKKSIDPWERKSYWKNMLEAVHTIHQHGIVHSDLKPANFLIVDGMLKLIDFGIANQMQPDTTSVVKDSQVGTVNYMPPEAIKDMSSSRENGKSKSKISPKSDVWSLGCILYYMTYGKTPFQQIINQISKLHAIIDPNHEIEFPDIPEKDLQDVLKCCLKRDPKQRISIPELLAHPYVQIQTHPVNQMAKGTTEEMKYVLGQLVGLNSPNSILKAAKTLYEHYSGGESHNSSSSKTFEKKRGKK

[4] = molecular target: Hepatocyte growth factor receptor (Homo sapiens, UniProt P08581); conditions: at 10 µM
Chain of Hepatocyte growth factor receptor (P08581 whole entry): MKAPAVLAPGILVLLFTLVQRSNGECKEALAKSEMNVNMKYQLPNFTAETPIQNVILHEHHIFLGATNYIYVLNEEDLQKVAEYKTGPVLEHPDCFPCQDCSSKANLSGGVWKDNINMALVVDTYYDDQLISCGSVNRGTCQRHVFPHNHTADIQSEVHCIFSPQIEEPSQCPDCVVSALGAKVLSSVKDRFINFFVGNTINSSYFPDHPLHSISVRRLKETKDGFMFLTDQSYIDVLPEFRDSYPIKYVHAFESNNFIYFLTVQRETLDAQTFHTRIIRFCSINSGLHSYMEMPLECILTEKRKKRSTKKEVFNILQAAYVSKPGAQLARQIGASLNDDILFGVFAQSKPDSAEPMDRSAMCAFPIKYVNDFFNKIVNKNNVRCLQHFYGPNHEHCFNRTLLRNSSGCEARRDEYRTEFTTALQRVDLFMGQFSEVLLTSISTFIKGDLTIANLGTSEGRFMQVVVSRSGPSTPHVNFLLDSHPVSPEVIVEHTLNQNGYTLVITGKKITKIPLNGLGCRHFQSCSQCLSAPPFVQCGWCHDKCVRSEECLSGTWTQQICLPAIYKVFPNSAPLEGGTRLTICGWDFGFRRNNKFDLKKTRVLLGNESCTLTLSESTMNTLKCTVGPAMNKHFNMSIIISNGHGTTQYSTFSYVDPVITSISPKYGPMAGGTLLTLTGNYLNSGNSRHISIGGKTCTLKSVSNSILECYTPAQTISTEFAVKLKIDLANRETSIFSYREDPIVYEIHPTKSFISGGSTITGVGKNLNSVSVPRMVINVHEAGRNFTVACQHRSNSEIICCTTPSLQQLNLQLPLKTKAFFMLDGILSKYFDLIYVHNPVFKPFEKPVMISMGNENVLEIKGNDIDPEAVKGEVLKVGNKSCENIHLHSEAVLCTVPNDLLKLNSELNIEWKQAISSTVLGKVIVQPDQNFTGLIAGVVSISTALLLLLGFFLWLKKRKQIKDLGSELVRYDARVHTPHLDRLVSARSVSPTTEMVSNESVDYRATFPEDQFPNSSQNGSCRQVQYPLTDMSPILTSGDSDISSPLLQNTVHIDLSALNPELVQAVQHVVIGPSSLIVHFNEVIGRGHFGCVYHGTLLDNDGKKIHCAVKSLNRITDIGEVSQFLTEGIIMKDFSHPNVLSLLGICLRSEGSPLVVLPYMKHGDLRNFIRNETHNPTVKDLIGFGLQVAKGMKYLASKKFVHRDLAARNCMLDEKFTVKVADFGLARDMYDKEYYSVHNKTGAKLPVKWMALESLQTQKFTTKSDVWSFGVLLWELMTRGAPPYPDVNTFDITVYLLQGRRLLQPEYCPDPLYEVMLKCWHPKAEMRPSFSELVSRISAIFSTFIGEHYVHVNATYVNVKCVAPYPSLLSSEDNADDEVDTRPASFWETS

[5] = molecular target: Tyrosine-protein kinase JAK1 (Homo sapiens, UniProt P23458); test: Selectivity interaction (KinomeScan (DiscoverX)) EUB0001619a JAK1; conditions: at 1 µM
Chain of Tyrosine-protein kinase JAK1 (P23458 whole entry): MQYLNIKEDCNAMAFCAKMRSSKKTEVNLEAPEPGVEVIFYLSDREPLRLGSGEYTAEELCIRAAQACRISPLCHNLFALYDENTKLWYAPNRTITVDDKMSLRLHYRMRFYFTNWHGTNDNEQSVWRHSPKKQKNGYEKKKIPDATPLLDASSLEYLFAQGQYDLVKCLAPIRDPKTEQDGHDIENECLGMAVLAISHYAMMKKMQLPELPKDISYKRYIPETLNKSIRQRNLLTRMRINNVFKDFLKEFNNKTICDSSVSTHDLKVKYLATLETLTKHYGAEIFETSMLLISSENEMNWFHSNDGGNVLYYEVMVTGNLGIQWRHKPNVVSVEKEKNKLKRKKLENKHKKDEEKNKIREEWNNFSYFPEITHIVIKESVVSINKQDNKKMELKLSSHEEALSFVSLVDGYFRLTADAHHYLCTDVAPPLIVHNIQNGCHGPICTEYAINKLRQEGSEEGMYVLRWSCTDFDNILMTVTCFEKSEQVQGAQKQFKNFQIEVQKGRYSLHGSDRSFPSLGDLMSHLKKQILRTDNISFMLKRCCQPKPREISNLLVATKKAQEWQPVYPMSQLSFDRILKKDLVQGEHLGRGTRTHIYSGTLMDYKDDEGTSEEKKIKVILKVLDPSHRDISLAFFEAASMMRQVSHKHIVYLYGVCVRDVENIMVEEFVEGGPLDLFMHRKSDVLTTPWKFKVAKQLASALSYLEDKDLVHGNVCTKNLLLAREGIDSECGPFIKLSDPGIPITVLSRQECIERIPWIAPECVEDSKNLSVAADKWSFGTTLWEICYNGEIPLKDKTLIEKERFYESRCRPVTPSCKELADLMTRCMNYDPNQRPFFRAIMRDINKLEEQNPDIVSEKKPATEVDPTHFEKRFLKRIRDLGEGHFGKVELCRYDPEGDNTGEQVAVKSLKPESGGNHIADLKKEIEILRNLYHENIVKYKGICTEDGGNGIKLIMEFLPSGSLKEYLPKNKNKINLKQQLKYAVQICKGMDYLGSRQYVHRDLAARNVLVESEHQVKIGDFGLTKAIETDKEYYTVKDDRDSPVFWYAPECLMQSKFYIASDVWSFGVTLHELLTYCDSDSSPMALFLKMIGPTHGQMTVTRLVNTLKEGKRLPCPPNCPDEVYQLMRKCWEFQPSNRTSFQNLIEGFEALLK

[6] = molecular target: TGF-beta receptor type-2 (Homo sapiens) (UniProt P37173); test: Selectivity interaction (KinomeScan (DiscoverX)) EUB0001619a TGFBR2; conditions: at 1 µM
Chain of TGF-beta receptor type-2 (Homo sapiens) (P37173 whole entry): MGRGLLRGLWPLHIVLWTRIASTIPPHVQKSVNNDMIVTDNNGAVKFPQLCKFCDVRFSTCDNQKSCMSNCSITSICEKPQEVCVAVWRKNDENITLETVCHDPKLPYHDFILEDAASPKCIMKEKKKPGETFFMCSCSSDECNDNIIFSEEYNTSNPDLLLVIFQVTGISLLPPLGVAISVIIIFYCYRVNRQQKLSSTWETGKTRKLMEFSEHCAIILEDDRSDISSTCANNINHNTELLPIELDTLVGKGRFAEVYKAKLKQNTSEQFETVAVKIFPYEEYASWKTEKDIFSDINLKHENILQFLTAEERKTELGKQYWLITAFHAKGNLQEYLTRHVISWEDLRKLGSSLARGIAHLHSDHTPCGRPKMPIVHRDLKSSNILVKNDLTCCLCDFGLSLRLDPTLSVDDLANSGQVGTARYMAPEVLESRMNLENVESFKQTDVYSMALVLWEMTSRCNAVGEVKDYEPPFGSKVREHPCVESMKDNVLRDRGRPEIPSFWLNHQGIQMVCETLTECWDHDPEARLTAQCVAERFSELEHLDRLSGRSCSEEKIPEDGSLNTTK

[7] = molecular target: T3, Protein arginine N-methyltransferase 7 (Homo sapiens) (UniProt Q9NVM4); test: Selectivity interaction (Methyltransferase screen (radiometric assays, panel of 8 PRMTs, 21 protein lysine methyltransferases, 3 DNA methyltransferases, and one RNA methyltransferase)) EUB0000272b PRMT7
T3 sequence (whole entry): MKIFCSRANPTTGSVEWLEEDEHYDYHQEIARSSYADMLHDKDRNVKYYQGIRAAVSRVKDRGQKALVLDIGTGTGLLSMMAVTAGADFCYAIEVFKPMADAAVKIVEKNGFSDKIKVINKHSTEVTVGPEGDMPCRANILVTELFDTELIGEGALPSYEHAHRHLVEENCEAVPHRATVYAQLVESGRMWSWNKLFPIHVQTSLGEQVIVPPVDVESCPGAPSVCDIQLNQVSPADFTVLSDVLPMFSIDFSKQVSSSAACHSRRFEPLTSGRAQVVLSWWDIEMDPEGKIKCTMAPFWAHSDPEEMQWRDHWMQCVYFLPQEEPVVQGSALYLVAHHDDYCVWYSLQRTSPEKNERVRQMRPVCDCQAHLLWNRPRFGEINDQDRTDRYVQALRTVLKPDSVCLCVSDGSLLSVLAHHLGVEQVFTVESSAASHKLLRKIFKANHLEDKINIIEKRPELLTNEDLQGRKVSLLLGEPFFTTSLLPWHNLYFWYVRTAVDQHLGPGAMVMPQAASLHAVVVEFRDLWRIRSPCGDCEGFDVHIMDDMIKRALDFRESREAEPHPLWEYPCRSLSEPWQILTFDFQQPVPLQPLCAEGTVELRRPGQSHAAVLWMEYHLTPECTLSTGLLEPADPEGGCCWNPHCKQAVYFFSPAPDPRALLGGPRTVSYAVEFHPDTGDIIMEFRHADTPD

In the case of `CCc1ccccc1C(=O)Nc1n[nH]c2c(C)c(F)c(C3C(C#N)=C(C)N(C)C(C)=C3C#N)cc12` [BAY-3827], the IC50 [1] is reported as 0.124 µM.

Molecule `COc1cc(N(C)c2ccnc3ccc(C(F)(F)F)cc23)cc(OC)c1OC` has a % binding [2] of 88% and a % binding [3] of 60%.

In the case of `COCC(=O)NC/C=C/c1ccc2ncnc(Nc3ccc(Oc4ccc(C)nc4)c(C)c3)c2c1` [CP-724714], the % of control [4] is reported as 74%.

`N#Cc1cccc(-c2c[nH]c3ncnc(N4CCOCC4)c23)c1` showed a % of control [5] of 100% and a % of control [6] of 100%.

`Cc1cc(C)cc([C@H]2c3cc(C)ccc3NC(=O)CN2C(=O)c2ccc(Br)s2)c1` showed a % of activity ([7]; at 1 µM) of 97.7% and a % of activity ([7]; at 10 µM) of 100%.
